Reference: PMC5622171 (Nature Communications, 2017)

Tests used:
[1] = test system: panel of seven other human nuclear receptors; assay: GeneBLAzer nuclear receptor panel, agonistic and antagonistic modes; format: cell-based
Description: For the GeneBLAzer NR-UAS-bla HEK 293 T assays for VDR, RXRα, RXRβ, FXR, GR, LXRα, LXRβ and PPARγ, GeneBLAzer panel nuclear receptor cells, the LiveBLAzer FRET-B/G Loading Kit with CCF4-AM, and all tissue culture reagents were purchased from Thermo Fisher Scientific. The assays were performed in accordance with the manufacturer’s instructions, with minor modifications as reported previously[48]–[50]. Briefly, positive control (as described for each assay), DMSO, and dilutions of test chemicals either alone (for agonistic assays) or in combination with an approximately EC80 concentration of a specific agonist (for antagonistic assays) were incubated with an optimized number of cells for each assay in wells of black 384-well tissue culture-treated clear-bottom plates with 30 µl of the respective assay medium in a 37 °C cell-culture incubator. A group of wells containing assay medium and DMSO, but no cells, served as a background control. The final DMSO concentration was 0.5% for all wells. After 24 h, 6 µl per well of loading solution was added, and this step was followed by an optimal period of incubation at room temperature in the dark before the fluorescent emission at 460 and 535 nm (using excitation at 400 nm) was measured with an EnVision plate reader. […]

NEK5 = target: T1, NEK5 (Homo sapiens, UniProt Q6P3R8); assay: KINOMEscan kinase profiling; format: binding; conditions: read-out: %Inhibition by 10 μM SPA70
T1 construct: purchased DiscoverX (Ambit Biosciences) KINOMEscan
Description: (§1) Kinase inhibition profiling assays. The kinase inhibition profiling assay (KINOMEscan) was performed by Ambit Biosciences, now part of DiscoveryX (Fremont, CA) in accordance with the […]
(§2) published protocol20, 21. […] If the inhibition of a kinase was greater […]
(§3) dilutions) starting from 30 µM.

PIM2 = target: T2, PIM2 (Homo sapiens, UniProt Q9P1W9); assay: KINOMEscan kinase profiling; format: binding; conditions: read-out: %Inhibition by 10 μM SPA70
T2 construct: purchased DiscoverX (Ambit Biosciences) KINOMEscan
Description: as §1, §2, §3

CDK9 = target: T3, CDK9 (Homo sapiens, UniProt P50750); assay: KINOMEscan kinase profiling; format: binding; conditions: read-out: %Inhibition by 10 μM SPA70
T3 construct: purchased DiscoverX (Ambit Biosciences) KINOMEscan
Description: as §1, §2, §3

ABL2 = target: T4, ABL2 (Homo sapiens, UniProt P42684); assay: KINOMEscan kinase profiling; format: binding; conditions: read-out: %Inhibition by 10 μM SPA70
T4 construct: purchased DiscoverX (Ambit Biosciences) KINOMEscan
T4 sequence (P42684 whole entry): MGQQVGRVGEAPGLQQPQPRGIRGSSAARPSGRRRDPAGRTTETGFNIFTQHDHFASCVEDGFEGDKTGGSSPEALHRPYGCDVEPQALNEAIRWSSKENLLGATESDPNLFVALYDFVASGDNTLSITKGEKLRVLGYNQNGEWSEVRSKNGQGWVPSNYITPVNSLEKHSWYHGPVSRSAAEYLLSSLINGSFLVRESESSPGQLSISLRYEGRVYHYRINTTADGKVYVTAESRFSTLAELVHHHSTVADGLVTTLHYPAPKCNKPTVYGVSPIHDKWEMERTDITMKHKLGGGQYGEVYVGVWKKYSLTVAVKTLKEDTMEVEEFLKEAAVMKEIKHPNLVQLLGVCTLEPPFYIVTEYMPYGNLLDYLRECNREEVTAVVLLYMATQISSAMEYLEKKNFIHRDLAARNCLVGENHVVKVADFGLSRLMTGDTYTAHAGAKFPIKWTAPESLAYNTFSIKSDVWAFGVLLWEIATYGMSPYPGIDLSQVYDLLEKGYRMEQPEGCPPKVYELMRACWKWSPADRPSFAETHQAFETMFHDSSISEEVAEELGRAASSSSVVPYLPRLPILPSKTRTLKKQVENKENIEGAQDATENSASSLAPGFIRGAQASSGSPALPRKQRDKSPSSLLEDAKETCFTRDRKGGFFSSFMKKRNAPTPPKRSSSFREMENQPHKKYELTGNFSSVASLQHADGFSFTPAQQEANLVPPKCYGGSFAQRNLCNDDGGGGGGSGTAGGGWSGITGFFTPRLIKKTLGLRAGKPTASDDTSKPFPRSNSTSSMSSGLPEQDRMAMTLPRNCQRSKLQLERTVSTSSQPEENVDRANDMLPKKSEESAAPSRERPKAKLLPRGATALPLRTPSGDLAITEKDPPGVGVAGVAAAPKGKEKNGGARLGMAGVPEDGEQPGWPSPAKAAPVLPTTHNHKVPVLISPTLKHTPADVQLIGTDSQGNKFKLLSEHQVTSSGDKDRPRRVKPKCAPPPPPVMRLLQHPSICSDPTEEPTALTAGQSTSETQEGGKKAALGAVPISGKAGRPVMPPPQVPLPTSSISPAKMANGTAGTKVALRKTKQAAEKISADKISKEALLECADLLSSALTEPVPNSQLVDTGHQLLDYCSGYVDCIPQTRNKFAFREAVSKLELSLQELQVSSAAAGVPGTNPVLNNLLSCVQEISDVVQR
Description: as §1, §2, §3

CDK3 = target: T5, CDK3 (Homo sapiens, UniProt Q00526); assay: KINOMEscan kinase profiling; format: binding
T5 construct: purchased DiscoverX (Ambit Biosciences) KINOMEscan
Description: as §1, §2, §3

PAK2 = target: T6, PAK2 (Homo sapiens, UniProt Q13177); assay: KINOMEscan kinase profiling; format: binding; conditions: read-out: %Inhibition by 10 μM SPA70
T6 construct: purchased DiscoverX (Ambit Biosciences) KINOMEscan
Description: as §1, §2, §3

PRKG2 = target: T7, PRKG2 (Homo sapiens, UniProt Q13237); assay: KINOMEscan kinase profiling; format: binding; conditions: read-out: %Inhibition by 10 μM SPA70
T7 construct: purchased DiscoverX (Ambit Biosciences) KINOMEscan
Description: as §1, §2, §3

BRAF = target: T8, BRAF (Homo sapiens, UniProt P15056); assay: KINOMEscan kinase profiling; format: binding; conditions: read-out: %Inhibition by 10 μM SPA70
T8 construct: purchased DiscoverX (Ambit Biosciences) KINOMEscan
Description: as §1, §2, §3

MEK6 = target: T9, MEK6 (Homo sapiens, UniProt P52564); assay: KINOMEscan kinase profiling; format: binding; conditions: read-out: %Inhibition by 10 μM SPA70
T9 construct: purchased DiscoverX (Ambit Biosciences) KINOMEscan
Description: as §1, §2, §3

LATS2 = target: T10, LATS2 (Homo sapiens, UniProt Q9NRM7); assay: KINOMEscan kinase profiling; format: binding
T10 construct: purchased DiscoverX (Ambit Biosciences) KINOMEscan
T10 sequence (Q9NRM7 whole entry): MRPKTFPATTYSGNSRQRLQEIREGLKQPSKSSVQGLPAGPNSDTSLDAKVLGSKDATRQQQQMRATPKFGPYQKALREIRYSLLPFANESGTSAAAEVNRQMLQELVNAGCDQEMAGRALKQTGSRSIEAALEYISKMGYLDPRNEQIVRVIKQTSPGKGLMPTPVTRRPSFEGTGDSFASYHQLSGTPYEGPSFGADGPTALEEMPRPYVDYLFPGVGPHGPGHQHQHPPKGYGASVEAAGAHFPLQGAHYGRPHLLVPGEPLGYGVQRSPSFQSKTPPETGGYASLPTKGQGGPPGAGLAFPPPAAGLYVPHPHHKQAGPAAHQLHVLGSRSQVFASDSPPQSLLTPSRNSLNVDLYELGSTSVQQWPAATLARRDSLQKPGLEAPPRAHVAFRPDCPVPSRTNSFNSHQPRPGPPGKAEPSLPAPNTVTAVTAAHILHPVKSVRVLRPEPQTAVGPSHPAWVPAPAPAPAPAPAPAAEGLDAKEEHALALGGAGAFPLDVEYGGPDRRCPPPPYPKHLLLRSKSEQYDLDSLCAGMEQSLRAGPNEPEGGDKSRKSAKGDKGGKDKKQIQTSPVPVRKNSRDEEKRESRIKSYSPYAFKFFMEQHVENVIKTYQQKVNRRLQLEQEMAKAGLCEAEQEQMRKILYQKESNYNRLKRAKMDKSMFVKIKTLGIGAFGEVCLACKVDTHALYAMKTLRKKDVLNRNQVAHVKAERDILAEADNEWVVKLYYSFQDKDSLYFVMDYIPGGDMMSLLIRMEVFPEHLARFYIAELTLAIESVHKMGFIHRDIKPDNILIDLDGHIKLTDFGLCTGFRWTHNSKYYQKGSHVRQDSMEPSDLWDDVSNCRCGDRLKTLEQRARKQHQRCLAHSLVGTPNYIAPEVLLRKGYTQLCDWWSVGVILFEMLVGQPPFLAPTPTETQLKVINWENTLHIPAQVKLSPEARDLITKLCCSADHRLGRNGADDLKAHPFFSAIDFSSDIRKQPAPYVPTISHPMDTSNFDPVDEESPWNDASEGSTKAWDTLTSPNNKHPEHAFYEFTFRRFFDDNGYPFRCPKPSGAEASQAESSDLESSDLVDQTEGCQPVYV
Description: as §1, §2, §3

EPHA6 = target: T11, EPHA6 (Homo sapiens, UniProt Q9UF33); assay: KINOMEscan kinase profiling; format: binding; conditions: read-out: %Inhibition by 10 μM SPA70
T11 construct: purchased DiscoverX (Ambit Biosciences) KINOMEscan
Description: as §1, §2, §3

NEK2 = target: T12, NEK2 (Homo sapiens, UniProt P51955); assay: KINOMEscan kinase profiling; format: binding; conditions: read-out: %Inhibition by 10 μM SPA70
T12 construct: purchased DiscoverX (Ambit Biosciences) KINOMEscan
Description: as §1, §2, §3

[2] = target: T13, JAK1(JH2domain-pseudokinase) (Homo sapiens, UniProt P23458); assay: KINOMEscan kinase profiling; format: binding
T13 construct: JAK1(JH2domain-pseudokinase); purchased DiscoverX (Ambit Biosciences) KINOMEscan
Description: as §1, §2, §3

BMPR1A = target: T14, BMPR1A (Homo sapiens, UniProt P36894); assay: KINOMEscan kinase profiling; format: binding; conditions: read-out: %Inhibition by 10 μM SPA70
T14 construct: purchased DiscoverX (Ambit Biosciences) KINOMEscan
Description: as §1, §2, §3

TNIK = target: T15, TNIK (Homo sapiens, UniProt Q9UKE5); assay: KINOMEscan kinase profiling; format: binding; conditions: read-out: %Inhibition by 10 μM SPA70
T15 construct: purchased DiscoverX (Ambit Biosciences) KINOMEscan
Description: as §1, §2, §3

JNK3 = target: T16, JNK3 (Homo sapiens, UniProt P53779); assay: KINOMEscan kinase profiling; format: binding
T16 construct: purchased DiscoverX (Ambit Biosciences) KINOMEscan
Description: as §1, §2, §3

PLK2 = target: T17, PLK2 (Homo sapiens, UniProt Q9NYY3); assay: KINOMEscan kinase profiling; format: binding
T17 construct: purchased DiscoverX (Ambit Biosciences) KINOMEscan
Description: as §1, §2, §3

ICK = target: T18, ICK (Homo sapiens, UniProt Q9UPZ9); assay: KINOMEscan kinase profiling; format: binding; conditions: read-out: %Inhibition by 10 μM SPA70
T18 construct: purchased DiscoverX (Ambit Biosciences) KINOMEscan
Description: as §1, §2, §3

NEK4 = target: T19, NEK4 (Homo sapiens, UniProt P51957); assay: KINOMEscan kinase profiling; format: binding; conditions: read-out: %Inhibition by 10 μM SPA70
T19 construct: purchased DiscoverX (Ambit Biosciences) KINOMEscan
Description: as §1, §2, §3

PFTAIRE2 = target: T20, PFTAIRE2 (Homo sapiens, UniProt Q96Q40); assay: KINOMEscan kinase profiling; format: binding; conditions: read-out: %Inhibition by 10 μM SPA70
T20 construct: purchased DiscoverX (Ambit Biosciences) KINOMEscan
T20 sequence (Q96Q40 whole entry): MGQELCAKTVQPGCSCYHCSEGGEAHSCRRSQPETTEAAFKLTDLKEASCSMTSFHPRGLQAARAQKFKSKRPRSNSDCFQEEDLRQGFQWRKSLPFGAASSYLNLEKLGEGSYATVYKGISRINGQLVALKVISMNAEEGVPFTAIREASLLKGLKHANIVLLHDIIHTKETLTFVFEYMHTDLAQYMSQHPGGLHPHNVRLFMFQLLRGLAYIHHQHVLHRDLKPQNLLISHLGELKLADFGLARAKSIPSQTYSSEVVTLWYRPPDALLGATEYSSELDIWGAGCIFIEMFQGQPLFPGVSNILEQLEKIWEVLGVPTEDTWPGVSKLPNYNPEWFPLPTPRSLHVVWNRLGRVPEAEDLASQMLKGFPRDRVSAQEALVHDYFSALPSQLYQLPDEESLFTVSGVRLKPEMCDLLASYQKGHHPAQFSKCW
Description: as §1, §2, §3

FGFR4 = target: T21, FGFR4 (Homo sapiens, UniProt P22455); assay: KINOMEscan kinase profiling; format: binding; conditions: read-out: %Inhibition by 10 μM SPA70
T21 construct: purchased DiscoverX (Ambit Biosciences) KINOMEscan
Description: as §1, §2, §3

TTK = target: T22, TTK (Homo sapiens, UniProt P33981); assay: KINOMEscan kinase profiling; format: binding; conditions: read-out: %Inhibition by 10 μM SPA70
T22 construct: purchased DiscoverX (Ambit Biosciences) KINOMEscan
Description: as §1, §2, §3

PRKG1 = target: T23, PRKG1 (Homo sapiens, UniProt Q13976); assay: KINOMEscan kinase profiling; format: binding; conditions: read-out: %Inhibition by 10 μM SPA70
T23 construct: purchased DiscoverX (Ambit Biosciences) KINOMEscan
T23 sequence (Q13976 whole entry): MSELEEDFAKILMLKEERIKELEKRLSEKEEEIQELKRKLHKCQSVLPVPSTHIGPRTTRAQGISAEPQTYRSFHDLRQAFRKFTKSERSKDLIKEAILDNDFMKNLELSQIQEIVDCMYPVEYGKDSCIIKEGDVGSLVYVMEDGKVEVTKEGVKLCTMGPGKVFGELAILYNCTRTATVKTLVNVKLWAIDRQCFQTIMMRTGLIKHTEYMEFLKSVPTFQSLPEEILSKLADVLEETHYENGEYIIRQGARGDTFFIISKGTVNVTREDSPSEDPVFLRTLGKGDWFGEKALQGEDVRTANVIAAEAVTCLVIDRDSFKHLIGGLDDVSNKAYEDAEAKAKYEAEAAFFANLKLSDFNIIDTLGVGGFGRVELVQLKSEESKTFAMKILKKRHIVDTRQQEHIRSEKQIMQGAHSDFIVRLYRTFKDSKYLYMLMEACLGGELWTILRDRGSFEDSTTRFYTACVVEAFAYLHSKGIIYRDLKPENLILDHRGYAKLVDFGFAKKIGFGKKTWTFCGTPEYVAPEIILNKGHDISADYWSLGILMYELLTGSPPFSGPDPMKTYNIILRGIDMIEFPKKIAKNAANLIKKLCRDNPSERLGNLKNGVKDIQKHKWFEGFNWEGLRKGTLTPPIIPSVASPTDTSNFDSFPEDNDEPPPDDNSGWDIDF
Description: as §1, §2, §3

IRAK3 = target: T24, IRAK3 (Homo sapiens, UniProt Q9Y616); assay: KINOMEscan kinase profiling; format: binding; conditions: read-out: %Inhibition by 10 μM SPA70
T24 construct: purchased DiscoverX (Ambit Biosciences) KINOMEscan
Description: as §1, §2, §3

MST1 = target: T25, MST1 (Homo sapiens, UniProt Q13043); assay: KINOMEscan kinase profiling; format: binding
T25 construct: purchased DiscoverX (Ambit Biosciences) KINOMEscan
Description: as §1, §2, §3

DCAMKL1 = target: T26, DCAMKL1 (Homo sapiens, UniProt O15075); assay: KINOMEscan kinase profiling; format: binding
T26 construct: purchased DiscoverX (Ambit Biosciences) KINOMEscan
Description: as §1, §2, §3

ABL1-nonphosphorylated = target: T27, ABL1-nonphosphorylated (Homo sapiens, UniProt P00519); assay: KINOMEscan kinase profiling; format: binding; conditions: read-out: %Inhibition by 10 μM SPA70
T27 construct: purchased DiscoverX (Ambit Biosciences) KINOMEscan
T27 sequence (P00519 whole entry): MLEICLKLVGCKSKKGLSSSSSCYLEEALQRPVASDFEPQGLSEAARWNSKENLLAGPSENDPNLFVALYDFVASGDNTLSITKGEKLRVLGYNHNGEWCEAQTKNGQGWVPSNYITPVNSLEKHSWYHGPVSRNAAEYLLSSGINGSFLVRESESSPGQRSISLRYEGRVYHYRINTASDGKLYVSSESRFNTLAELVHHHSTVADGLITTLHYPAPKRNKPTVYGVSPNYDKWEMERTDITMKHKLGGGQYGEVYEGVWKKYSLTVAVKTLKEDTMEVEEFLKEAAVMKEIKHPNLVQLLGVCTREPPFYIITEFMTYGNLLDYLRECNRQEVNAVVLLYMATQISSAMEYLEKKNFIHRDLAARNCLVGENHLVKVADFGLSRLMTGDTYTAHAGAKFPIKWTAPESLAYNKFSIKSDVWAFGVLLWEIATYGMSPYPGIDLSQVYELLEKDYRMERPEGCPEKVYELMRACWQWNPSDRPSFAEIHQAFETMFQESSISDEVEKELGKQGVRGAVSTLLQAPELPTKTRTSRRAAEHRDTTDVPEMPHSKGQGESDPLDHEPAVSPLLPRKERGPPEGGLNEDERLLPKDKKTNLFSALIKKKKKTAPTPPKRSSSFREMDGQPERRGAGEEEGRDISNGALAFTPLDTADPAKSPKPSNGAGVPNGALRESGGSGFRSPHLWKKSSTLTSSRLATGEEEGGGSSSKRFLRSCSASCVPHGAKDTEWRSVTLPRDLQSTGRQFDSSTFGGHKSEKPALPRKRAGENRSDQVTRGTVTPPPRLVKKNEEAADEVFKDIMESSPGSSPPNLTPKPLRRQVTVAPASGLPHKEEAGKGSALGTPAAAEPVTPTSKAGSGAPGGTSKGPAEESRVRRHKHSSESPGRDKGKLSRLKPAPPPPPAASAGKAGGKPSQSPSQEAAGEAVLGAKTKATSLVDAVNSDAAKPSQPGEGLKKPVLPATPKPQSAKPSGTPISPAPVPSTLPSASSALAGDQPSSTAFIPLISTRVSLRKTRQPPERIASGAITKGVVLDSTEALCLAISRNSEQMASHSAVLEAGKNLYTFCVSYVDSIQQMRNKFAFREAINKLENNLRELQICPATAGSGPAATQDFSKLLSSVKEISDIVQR
Description: as §1, §2, §3

MYO3A = target: T28, MYO3A (Homo sapiens, UniProt Q8NEV4); assay: KINOMEscan kinase profiling; format: binding; conditions: read-out: %Inhibition by 10 μM SPA70
T28 construct: purchased DiscoverX (Ambit Biosciences) KINOMEscan
Description: as §1, §2, §3

CDK4-cyclinD1 = target: T29, CDK4-cyclinD1 (Homo sapiens, UniProt P11802); assay: KINOMEscan kinase profiling; format: binding; conditions: read-out: %Inhibition by 10 μM SPA70
T29 construct: purchased DiscoverX (Ambit Biosciences) KINOMEscan
Description: as §1, §2, §3

ALK = target: T30, ALK (Homo sapiens, UniProt Q9UM73); assay: KINOMEscan kinase profiling; format: binding; conditions: read-out: %Inhibition by 10 μM SPA70
T30 construct: purchased DiscoverX (Ambit Biosciences) KINOMEscan
Description: as §1, §2, §3

CLK2 = target: T31, CLK2 (Homo sapiens, UniProt P49760); assay: KINOMEscan kinase profiling; format: binding; conditions: read-out: %Inhibition by 10 μM SPA70
T31 construct: purchased DiscoverX (Ambit Biosciences) KINOMEscan
Description: as §1, §2, §3

VRK2 = target: T32, VRK2 (Homo sapiens, UniProt Q86Y07); assay: KINOMEscan kinase profiling; format: binding; conditions: read-out: %Inhibition by 10 μM SPA70
T32 construct: purchased DiscoverX (Ambit Biosciences) KINOMEscan
T32 sequence (Q86Y07 whole entry): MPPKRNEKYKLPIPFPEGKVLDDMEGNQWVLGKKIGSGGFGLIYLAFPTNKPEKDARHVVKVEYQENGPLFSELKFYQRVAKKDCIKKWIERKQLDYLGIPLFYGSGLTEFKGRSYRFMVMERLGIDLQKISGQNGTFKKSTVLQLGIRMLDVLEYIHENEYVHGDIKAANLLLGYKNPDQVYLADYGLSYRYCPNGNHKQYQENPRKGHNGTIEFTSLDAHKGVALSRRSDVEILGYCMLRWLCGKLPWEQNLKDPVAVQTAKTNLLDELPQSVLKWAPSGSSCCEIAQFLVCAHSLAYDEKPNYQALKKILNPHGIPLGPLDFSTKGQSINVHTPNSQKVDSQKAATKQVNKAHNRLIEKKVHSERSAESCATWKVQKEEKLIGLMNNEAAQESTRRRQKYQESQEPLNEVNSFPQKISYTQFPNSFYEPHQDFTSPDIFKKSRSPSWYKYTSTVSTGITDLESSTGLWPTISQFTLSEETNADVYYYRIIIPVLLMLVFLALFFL
Description: as §1, §2, §3

LS1034 cells = assay: CellTiter-Glo cytotoxicity assay; conditions: 10 µM SPA70
Description: For the LS180, SNU-C4 and LS1034 cytotoxicity assays, cells were seeded in a 96-well plate (Corning) at 4000 cells per well. […] Cell viability was assessed using the CellTiter-Glo assay.

COc1ccc(OC)c(-n2nnc(S(=O)(=O)c3ccc(C(C)(C)C)cc3)c2C)c1 [SPA70]
Agonistic or antagonistic activity against other human nuclear receptors [1]: no detectable agonistic or antagonistic activity
inhibition at 10 µM (NEK5): 0%
inhibition at 10 µM (PIM2): 0%
inhibition at 10 µM (CDK9): 0%
inhibition at 10 µM (ABL2): 0%
%Inhibition by 10 μM SPA70 (CDK3): 3%
inhibition at 10 µM (PAK2): 0%
inhibition at 10 µM (PRKG2): 12%
inhibition at 10 µM (BRAF): 0%
inhibition at 10 µM (MEK6): 0%
%Inhibition by 10 μM SPA70 (LATS2): 0%
inhibition at 10 µM (EPHA6): 0%
inhibition at 10 µM (NEK2): 4%
%Inhibition by 10 μM SPA70 [2]: 0%
inhibition at 10 µM (BMPR1A): 2%
inhibition at 10 µM (TNIK): 10%
%Inhibition by 10 μM SPA70 (JNK3): 9%
%Inhibition by 10 μM SPA70 (PLK2): 9%
inhibition at 10 µM (ICK): 0%
inhibition at 10 µM (NEK4): 21%
inhibition at 10 µM (PFTAIRE2): 0%
inhibition at 10 µM (FGFR4): 5%
inhibition at 10 µM (TTK): 0%
inhibition at 10 µM (PRKG1): 0%
inhibition at 10 µM (IRAK3): 15%
%Inhibition by 10 μM SPA70 (MST1): 0%
%Inhibition by 10 μM SPA70 (DCAMKL1): 0%
inhibition at 10 µM (ABL1-nonphosphorylated): 0%
inhibition at 10 µM (MYO3A): 0%
inhibition at 10 µM (CDK4-cyclinD1): 20%
inhibition at 10 µM (ALK): 0%
inhibition at 10 µM (CLK2): 24%
inhibition at 10 µM (VRK2): 0%
Sensitization of LS1034 cells to paclitaxel and vincristine (LS1034 cells): sensitized LS1034 cells to both paclitaxel and vincristine
